What was measured:
[1] = test system: phosphorylation of ERK, KRAS G12D in AGS cells; test: pERK inhibition assay; assay type: cell-based; details: Homo sapiens, AGS, 4 h
In short: (§1)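 Phospho-ERK quantified by in-cell ELISA with TMB read-out at OD450 following 4 h compound exposure (final 0.5% DMSO). Cell lines were SW620 (KRAS G12V), AGS (G12D) and NCI-H358 (G12C), grown in RPMI-1640 with 10% FBS. A 4-parameter sigmoidal model gave the IC50.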

[2] = test system: phosphorylation of ERK, KRAS G12C in NCI-H358 cells; test: pERK inhibition assay; assay type: cell-based; details: Homo sapiens, NCI-H358, 4 h
In short: as §1

[3] = test system: phosphorylation of ERK, KRAS G12V in SW620; test: pERK inhibition assay; assay type: cell-based; details: Homo sapiens, SW-620, 4 h, SW620 cells
In short: as §1

SW620 cells (KRAS G12V) = test: Cell viability assay (Cell Counting Kit-8, 3-day); assay type: cell-based, human; details: Homo sapiens, SW-620; SW620, 72 hrs incubation
In short: (§2)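 Read-out is CCK-8 absorbance (OD450 minus OD650, 2 hrs after reagent), reflecting NADPH after 72 hrs of compound exposure in 0.5% DMSO. Seeding density was 5,000 cells/well for NCI-H358 and 2,000 for AGS and SW620. IC50 derived by 4-parameter sigmoidal fitting.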

AGS cells (KRAS G12D) = test: Cell viability assay (Cell Counting Kit-8, 3-day); assay type: cell-based, human; details: Homo sapiens, 72 h, 72 hrs incubation
In short: as §2

[4] = test system: NCI-H358 cells (KRAS G12C); test: Cell viability assay (Cell Counting Kit-8, 3-day); assay type: cell-based, human; details: Homo sapiens, NCI-H358, 72 h, NCI-H358, 72 hrs incubation
In short: as §2

KRAS G12C-BRAF complex = KRAS G12C-BRAF complex (Homo sapiens (Human), UniProt P01116+P62937, G12C); test: KRAS-BRAF with CYPA (500 nM) interaction assay (TR-FRET, Example 136); assay type: biochemical; details: KRAS G12C-BRAF disruption
Sequence of KRAS G12C-BRAF complex (P01116-2 other isoform, or with tags, fused parts or gaps G12C): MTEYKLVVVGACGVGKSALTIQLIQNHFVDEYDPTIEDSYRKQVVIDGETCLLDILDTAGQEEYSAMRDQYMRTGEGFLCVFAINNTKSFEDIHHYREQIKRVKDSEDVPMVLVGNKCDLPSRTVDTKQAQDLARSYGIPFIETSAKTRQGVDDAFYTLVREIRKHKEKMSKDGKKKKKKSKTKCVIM
Sequence of KRAS G12C-BRAF complex (P62937 whole entry): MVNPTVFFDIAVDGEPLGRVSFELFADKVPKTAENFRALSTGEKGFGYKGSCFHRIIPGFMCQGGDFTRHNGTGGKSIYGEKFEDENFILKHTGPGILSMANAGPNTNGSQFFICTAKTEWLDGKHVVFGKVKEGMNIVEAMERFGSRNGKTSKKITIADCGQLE

`CO[C@@H](C)c1ncc(N2CCOCC2)cc1-c1c2c3cc(cc4c3n1C[C@@H](O)C4)-c1csc(n1)C[C@H](NC(=O)[C@H]1[C@H](C)[C@@H]1C)C(=O)N1CCC[C@H](N1)C(=O)OCC(C)(C)C2` (atropisomer, axis not shown; (M)) [Example 107, (1r,2R,3S)-N-[(7S,13S,23S)-23-hydroxy-(20M)-20-[2-[(1S)-1-methoxyethyl]-5-morpholino-3-pyridyl]-17,17-dimethyl-8,14-dioxo-15-oxa-4-thia-9,21,30,31-tetrazahexacyclo[23.3.1.1^2,5.1^9,13.0^19,27.0^21,26]hentriaconta-1 (28),2,5 (31),19,25 (29),26-hexaen-7-yl]-2,3-dimethyl-cyclopropanecarboxamide] showed an IC50 [1] of 7.4 nM, an IC50 [2] of 2.7 nM and an IC50 [3] of 1.5 nM. The IC50 (SW620 cells (KRAS G12V)) was 1.2 nM, the IC50 (AGS cells (KRAS G12D)) was 5.4 nM and the IC50 [4] was 8.4 nM. For the same molecule, the IC50 (KRAS G12C-BRAF complex) was 47.6 nM.
For `CO[C@@H](C)c1ncc(N2CCN(C3CCOCC3)CC2)cc1-c1c2c3cc(cc4c3n1CCC4)-c1csc(n1)C[C@H](NC(=O)[C@H]1[C@H](C)[C@@H]1C)C(=O)N1CCC[C@H](N1)C(=O)OCC(C)(C)C2` (atropisomer, axis not shown; (M)) [Example 117, (1r,2R,3S)-N-[(7S,13S)-(20M)-20-[2-[(1S)-1-methoxyethyl]-5-(4-tetrahydropyran-4-ylpiperazin-1-yl)-3-pyridyl]-17,17-dimethyl-8,14-dioxo-15-oxa-4-thia-9,21,30,31-tetrazahexacyclo[23.3.1.1^2,5.1^9,13.0^19,27.0^21,26]hentriaconta-1 (28),2,5 (31), 19,25 (29),26-hexaen-7-yl]-2,3-dimethyl-cyclopropanecarboxamide], the IC50 [1] was 4.1 nM, the IC50 [2] was 0.7 nM and the IC50 [3] was 0.3 nM. For the same molecule, the IC50 (SW620 cells (KRAS G12V)) was 0.2 nM, the IC50 (AGS cells (KRAS G12D)) was 2.5 nM and the IC50 [4] was 1.5 nM. The IC50 (KRAS G12C-BRAF complex) was 15.9 nM.
`CO[C@@H](C)c1ncc(N2CCN(CCCO)CC2)cc1-c1c2c3cc(cc4c3n1CCC4)-c1csc(n1)C[C@H](NC(=O)[C@H]1[C@H](C)[C@@H]1C)C(=O)N1CCC[C@H](N1)C(=O)OCC(C)(C)C2` (atropisomer, axis not shown; (M)) [Example 111, (1r,2R,3S)-N-[(7S,13S)-(20M)-20-[5-[4-(3-hydroxypropyl)piperazin-1-yl]-2-[(1S)-1-methoxyethyl]-3-pyridyl]-17,17-dimethyl-8,14-dioxo-15-oxa-4-thia-9,21,30,31-tetrazahexacyclo[23.3.1.1^2,5.1^9,13.0^19,27.0^21,26]hentriaconta-1 (28),2,5 (31), 19,25 (29),26-hexaen-7-yl]-2,3-dimethyl-cyclopropanecarboxamide] gave an IC50 [1] of 2 nM, an IC50 [2] of 0.6 nM and an IC50 [3] of 0.4 nM. For the same molecule, the IC50 (SW620 cells (KRAS G12V)) was 0.2 nM, the IC50 (AGS cells (KRAS G12D)) was 0.8 nM and the IC50 [4] was 1 nM. The IC50 (KRAS G12C-BRAF complex) was 4.7 nM.
`CO[C@@H](C)c1ncc(N2CCN(C)CC2)cc1-c1c2c3cc(cc4c3n1CCC4)-c1csc(n1)C[C@H](NC(=O)[C@H]1C[C@@H]1c1ccccc1)C(=O)N1CCC[C@H](N1)C(=O)OCC(C)(C)C2` (atropisomer, axis not shown; (M)) [Example 22, (1S,2S)-N-[(7S,13S)-(20M)-20-[2-[(1S)-1-methoxyethyl]-5-(4-methylpiperazin-1-yl)-3-pyridyl]-17,17-dimethyl-8,14-dioxo-15-oxa-4-thia-9,21,30,31-tetrazahexacyclo[23.3.1.1^2,5.1^9,13.0^19,27.0^21,26]hentriaconta-1 (28),2,5 (31), 19,25 (29),26-hexaen-7-yl]-2-phenyl-cyclopropanecarboxamide] showed an IC50 [1] of 3.8 nM, an IC50 [2] of 0.6 nM and an IC50 [3] of 0.7 nM. It also gave an IC50 (SW620 cells (KRAS G12V)) of 0.8 nM, an IC50 (AGS cells (KRAS G12D)) of 14.2 nM and an IC50 [4] of 3.1 nM. The IC50 (KRAS G12C-BRAF complex) was 6.4 nM.

Reference: patent US20240417410A1, “TRICYCLIC COMPOUNDS FOR THE TREATMENT OF CANCER” (Hoffmann-La Roche Inc., priority 2023, published 2024)
